Assay results: publication PMC11674305, “Inhibition of Neural Crest Cell Migration by Strobilurin Fungicides and Other Mitochondrial Toxicants” (Cells, 2024)

System: neural crest cells (NCC)
Assay type: cell-based, human
Description: The research group initially developed the first version of the test in 2012 [40]. The test has been further improved and characterized. To perform the cMINC assay, NCCs were thawed in N2-S Medium and seeded on the day of migration-1 (DoM-1) on a 96-well polystyrene plate (Corning, Glendale, AZ, USA) around stoppers, to create a cell-free area of 2 mm diameter (Platypus Technologies, Madison, WI, USA). The cells were resuspended in N2-S Medium supplemented with […] of the cytokines EGF and FGF, and then counted and seeded around the stoppers at a density of 95,000 cells/cm^2. After 24 h, the stoppers were removed, and the medium was exchanged. […]
On day 2, cells were stained with 533 nM calcein-AM and 1 μg/mL H-33342 (both from Sigma, Steinheim, Germany) and observed using two different channels on the Cellomics ArrayScan VTI imaging microscope (Thermo Fisher, Pittsburgh, PA, USA) to assess viability and migration. […] Cell viability was assessed by taking four pictures outside of the ROI with 10× magnification objective. Viable cells were defined as H-33342 and calcein-AM double-positive cells and calculated by an automatic algorithm of the ArrayScan VTI 700 Series software as described earlier. […] The average response (relative to solvent control) of the lowest two test concentrations was calculated, and all other data points of the same curve were divided by this average value. […]

For CO/C=C(/C(=O)OC)c1ccccc1COc1cccc(C(F)(F)F)n1 [Picoxystrobin, picoxystrobin], the “BMC10 (V)” value was 2.8 µM and the “concentration range at which migration was inhibited” value (galactose medium) was ~100 nM.
